Laboratory results: article PMC6737244, “Cathelicidin Peptides Restrict Bacterial Growth via Membrane Perturbation and Induction of Reactive Oxygen Species” (mBio, 2019)
Ends that are not written are not given here.

Tests used:
[1] = tested on: E. coli UTI89; assay: Differential gene expression after peptide exposure; type: cell-based, Escherichia coli; conditions: 30 nM, 5-min exposure
Procedure: To determine the mechanism by which sublethal concentrations of cathelicidins affect bacterial cell physiology, we sought to analyze gene expression prior to and after a 5-min exposure to 30 nM B22a. The chromosomal integron of V. cholerae contains hundreds of repeats and horizontally acquired genes of unknown function ([20][–][23]). Moreover, many of these genes are duplicated, which can further complicate interpreting gene expression patterns. We elected to examine peptide-induced expression changes in E. coli to simplify gene identification and assignment of potential functions. Significant changes in expression were identified for genes whose products participate in global processes such as protein synthesis, protein folding, protein secretion, intracellular pH, membrane modification, c-di-GMP production, peptidoglycan biosynthesis, respiration, and detoxification of reactive oxygen species (ROS) (Table 2). Perturbation of peptidoglycan synthesis was consistent with the membrane blebbing we observed following B22 and B22a treatment. Other notable changes included arnF, the product of which modifies the lipid A moiety of lipopolysaccharide (LPS) with 4-amino-4-deoxy-L-arabinose (L-Ara4N) to confer resistance to polymyxin and cationic antimicrobial peptides in E. coli and Salmonella enterica serotype Typhimurium ([24], [25]). c-di-GMP-dependent Psl exopolysaccharide production is part of the first line of defense against reactive oxygen species in P. aeruginosa ([26]). The respiratory chain is a major source of periplasmic ROS such as superoxide (O2^−) and hydrogen peroxide (H2O2) ([27]), and cytosolic flavoenzymes such as fumarate reductase (Frd) can generate O2^−, H2O2, and hydroxyl radical (^·OH) that damages membrane lipids, DNA, and proteins. ArcA is important for regulating bacterial resistance to ROS under aerobic conditions, and OxyR directly senses H2O2 to induce expression of a slew of genes, including ahpC and gshA, to counter H2O2 accumulation ([28], [29]).

[2] = tested on: E. coli; assay: Single-cell division time, time-lapse phase-contrast microscopy; type: cell-based, Escherichia coli; conditions: 30 nM, first three generations
Procedure: To confirm that sublethal levels of cathelicidins affected the growth of Gram-negative bacteria, the division of single cells of E. coli and E. cloacae was monitored. Cells were seeded into microfluidic chambers and grown under continuous flow, and time-lapse phase-contrast microscopy was used to record the cell division time in the presence or absence of B22a.
Imaging of individual cells was conducted using the CellAsic microfluidic perfusion system (ONIX) with integrated temperature controller and B04A bacterial microfluidic plates (EMD Millipore, Billerica, MA). The CellAsic ONIX FG software (v 5.0.2.0) was used to control flow rate and deliver fresh medium with or without antimicrobial peptide (AMP). The chambers were loaded by perfusion of 50 μl of a 10^6 cells/ml bacterial suspension at 2 lb/in^2 for 15 s to prime the cells followed by 4 lb/in^2 for 15 s to trap the cells. The chamber was then rinsed at 1 lb/in^2 for 30 s followed by 5 lb/in^2 for 5 min. To quickly switch solutions, medium was perfused at 10 lb/in^2 for 10 s, and then flow was reduced to 2 lb/in^2 for the remainder of the imaging.

## FRKKLKKLFKKLSPVIPLLKLG-NH2 [B22a]
[1]
  Log2 fold change, ahpC (UTI89_C0608): −1.35
  Log2 fold change, ansB (UTI89_C3346): −3.26
  Log2 fold change, arcA (UTI89_C5174): −1.55
  Log2 fold change, ardB (UTI89_C2011): −1.39
  Log2 fold change, arnF (yfbJ) (UTI89_C2541): 1.44
  Log2 fold change, arrD (UTI89_C1304): 2.56
  Log2 fold change, asnA (UTI89_C4299): −1.38
  Log2 fold change, asnS (UTI89_C1002): −1.19
  Log2 fold change, aspA (UTI89_C4736): −2.31
  Log2 fold change, ccmH (UTI89_C2472): −1.19
  Log2 fold change, citB (UTI89_C0624): −2.71
  Log2 fold change, cspA (UTI89_C4097): 1.44
  Log2 fold change, cspG (UTI89_C1051): 1.67
  Log2 fold change, cybC (UTI89_C4840): −2.73
  Log2 fold change, cyoD (UTI89_C0453): 1.80
  Log2 fold change, cysM (UTI89_C2754): −2.60
  Log2 fold change, dapC (UTI89_C3862): −1.97
  Log2 fold change, dcuA (UTI89_C4735): −2.63
  Log2 fold change, dgkA (UTI89_C4612): −1.71
  Log2 fold change, eno (UTI89_C3148): −2.02
  Log2 fold change, evgS (UTI89_C2702): 1.30
  Log2 fold change, fabA (UTI89_C1019): −1.48
  Log2 fold change, fdoG (UTI89_C4481): 1.13
  Log2 fold change, fimX (UTI89_C0338): 1.57
  Log2 fold change, frdA (UTI89_C4754): −1.78
  Log2 fold change, frdB (UTI89_C4753): −2.97
  Log2 fold change, fusA (UTI89_C3842): −1.22
  Log2 fold change, gadX (UTI89_C4048): 1.74
  Log2 fold change, gapA (UTI89_C1975): −2.34
  Log2 fold change, gmhB (UTI89_C0216): −2.02
  Log2 fold change, gnd (UTI89_C2302): −1.41
  Log2 fold change, gshA (UTI89_C3050): −1.92
  Log2 fold change, gsk (UTI89_C0505): 1.20
  Log2 fold change, holE (UTI89_C2044): 2.85
  Log2 fold change, hslJ (UTI89_C1622): −1.15
  Log2 fold change, manY (UTI89_C2016): −1.16
  Log2 fold change, marR (UTI89_C1833): 1.29
  Log2 fold change, mcbR (UTI89_C1669): 2.96
  Log2 fold change, mdoG (UTI89_C1172): 1.63
  Log2 fold change, mrcB (UTI89_C0165): 1.85
  Log2 fold change, mrp (UTI89_C2387): −1.64
  Log2 fold change, mtgA (UTI89_C3644): 1.90
  Log2 fold change, napC (UTI89_C2480): −2.52
  Log2 fold change, narP (UTI89_C2471): −2.02
  Log2 fold change, ompC (UTI89_C2497): −1.11
  Log2 fold change, ompT (UTI89_C0566): 1.11
  Log2 fold change, orf (UTI89_C0124): 1.89
  Log2 fold change, orf (UTI89_C1095): 1.47
  Log2 fold change, orf (UTI89_C1152): 1.40
  Log2 fold change, orf (UTI89_C1286): 1.09
  Log2 fold change, orf (UTI89_C3928): 1.10
  Log2 fold change, orf (UTI89_C4380): −1.48
  Log2 fold change, oxyR (UTI89_C4554): 1.11
  Log2 fold change, pflB (UTI89_C0974): −2.71
  Log2 fold change, ptsK (UTI89_C2748): −1.06
  Log2 fold change, rpmE (UTI89_C4521): 1.08
  Log2 fold change, rtcA (UTI89_C3920): −2.90
  Log2 fold change, sdaB (UTI89_C3168): −3.16
  Log2 fold change, sdaC (UTI89_C3167): −2.21
  Log2 fold change, secB (UTI89_C4151): −2.45
  Log2 fold change, secY (UTI89_C3746): −1.36
  Log2 fold change, serS (UTI89_C0908): −2.29
  Log2 fold change, torY (UTI89_C2077): 1.03
  Log2 fold change, tpiA (UTI89_C4503): −1.16
  Log2 fold change, uspE (UTI89_C1604): 1.28
  Log2 fold change, wbgM (UTI89_C2303): 1.29
  Log2 fold change, xdhC (UTI89_C3253): −2.37
  Log2 fold change, yaaY (UTI89_C0026): 1.32
  Log2 fold change, yacH (UTI89_C0130): 1.39
  Log2 fold change, yaiS (UTI89_C2239): 1.92
  Log2 fold change, ybcS1 (UTI89_C1303): 2.14
  Log2 fold change, ybfN (UTI89_C0686): 1.22
  Log2 fold change, ybjD (UTI89_C0880): 1.31
  Log2 fold change, ycaD (UTI89_C0972): −1.66
  Log2 fold change, yciL (UTI89_C1537): −1.27
  Log2 fold change, ydeH (UTI89_C1760): 4.38
  Log2 fold change, ydiU (UTI89_C1899): 1.27
  Log2 fold change, yecR (UTI89_C2105): −2.29
  Log2 fold change, yehE (UTI89_C2386): −1.09
  Log2 fold change, yfaE (UTI89_C2517): −2.34
  Log2 fold change, yfbR (UTI89_C2573): −1.89
  Log2 fold change, yfcD (UTI89_C2583): −1.88
  Log2 fold change, yfeK (UTI89_C2753): −1.41
  Log2 fold change, ygdI (UTI89_C3181): 1.30
  Log2 fold change, ygdI (UTI89_C3182): 1.31
  Log2 fold change, ygdR (UTI89_C3236): 1.12
  Log2 fold change, yghU (UTI89_C3411): −2.15
  Log2 fold change, yhbQ (UTI89_C3582): −1.70
  Log2 fold change, yhbW (UTI89_C3587): −1.14
  Log2 fold change, yhcO (UTI89_C3670): 1.80
  Log2 fold change, yhdL (UTI89_C3736): 1.09
  Log2 fold change, yjbK (UTI89_C4616): 1.10
  Log2 fold change, yjcC (UTI89_C4647): −1.25
  Log2 fold change, yjeH (UTI89_C4739): −1.27
  Log2 fold change, yjeI (UTI89_C4742): −1.76
  Log2 fold change, yjgF (ridA) (UTI89_C4848): 2.24
  Log2 fold change, ykgH (UTI89_C0333): −2.93
  Log2 fold change, ymdC (UTI89_C1169): 1.04
  Log2 fold change, ymgA (UTI89_C1348): 1.77
  Log2 fold change, ynfJ (UTI89_C1779): −1.82
  Log2 fold change, ynhG (UTI89_C1870): 1.34
  Log2 fold change, yqgD (UTI89_C3330): 1.11
  Log2 fold change, yrdA (UTI89_C3724): 1.02
  Log2 fold change, yrdE (UTI89_C3686): −2.10
[2]
  Cell division time: increased twofold
